In patent publication US20060069132A1, “Azolecarboxamide herbicides” (priority 2004, published 2006):

How the values were obtained:
Assay in all cases: Test C pre-/postemergence herbicide test
[1] = test system: common ragweed; assay type: in vivo, Ambrosia elatior; set-up: key to Plant response rating, Ragweed: 0 = no effect, 100 = complete control; details: for Plant response rating (0 = no effect, 100 = complete control), Ragweed / Plant response rating, Ragweed: preemergence; for Ragweed plant response rating: Preemergence, 500 g ai/ha, scale 0 to 100, 0 no effect, 100 complete control
Method in brief: (§1)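 Pre- and postemergence application, solvent/surfactant formulation; post at 1- to 4-leaf stage (2–18 cm). Greenhouse 12–14 d. Visual rating vs controls, 0 = no effect, 100 = complete control.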

[2] = test system: common (oilseed) sunflower; assay type: in vivo, Helianthus annuus; details: for Plant response rating (0 = no effect, 100 = complete control), Sunflower / Plant response rating, Sunflower: preemergence; for Sunflower plant response rating: Preemergence, 500 g ai/ha, scale 0 to 100, 0 no effect, 100 complete control
Method in brief: as §1

[3] = test system: pigweed; assay type: in vivo, Amaranthus retroflexus; details: for Plant response rating (0 = no effect, 100 = complete control), Pigweed / Plant response rating, Pigweed: preemergence; for Pigweed plant response rating: Preemergence, 500 g ai/ha, scale 0 to 100, 0 no effect, 100 complete control
Method in brief: as §1

[4] = test system: lambsquarters; assay type: in vivo, Chenopodium album; details: for Plant response rating (0 = no effect, 100 = complete control), Lambsquarters / Plant response rating, Lambsquarters: preemergence; for Lambsquarters plant response rating: Preemergence, 500 g ai/ha, scale 0 to 100, 0 no effect, 100 complete control
Method in brief: as §1

[5] = test system: large crabgrass; assay type: in vivo, Digitaria sanguinalis; details: for Plant response rating (0 = no effect, 100 = complete control), Crabgrass, Large / Plant response rating, Crabgrass, Large: preemergence; for Crabgrass, Large plant response rating: Preemergence, 500 g ai/ha, scale 0 to 100, 0 no effect, 100 complete control
Method in brief: as §1

[6] = 125 g ai/ha, scale 0 (no effect) to 100 (complete control), visual, 12 to 14 days
[7] = 250 g ai/ha, scale 0 to 100 (0 no effect, 100 complete control), visual, 12 to 14 days

In the case of `CCn1nc(C(C)(C)C)cc1C(=O)Nc1cccc(C(=O)NCC(C)C)c1` [Compound 61], the “Plant response rating (0 = no effect, 100 = complete control), Ragweed” value ([1]; 62 g ai/ha) is reported as 0, the “Plant response rating, Ragweed” value [1, 6] is reported as 0 and the “Plant response rating, Ragweed” value [1, 7] is reported as 80. For the same molecule, the “Ragweed plant response rating” value [1] was 80, the “Plant response rating (0 = no effect, 100 = complete control), Sunflower” value ([2]; 62 g ai/ha) was 0 and the “Plant response rating, Sunflower” value [2, 6] was 0. For the same molecule, the “Plant response rating, Sunflower” value [2, 7] was 0, the “Sunflower plant response rating” value [2] was 0 and the “Plant response rating (0 = no effect, 100 = complete control), Pigweed” value ([3]; 62 g ai/ha) was 0. For the same molecule, the “Plant response rating, Pigweed” value [3, 6] was 95, the “Plant response rating, Pigweed” value [3, 7] was 95 and the “Pigweed plant response rating” value [3] was 95. For the same molecule, the “Plant response rating (0 = no effect, 100 = complete control), Lambsquarters” value ([4]; 62 g ai/ha) was 100, the “Plant response rating, Lambsquarters” value [4, 6] was 100 and the “Plant response rating, Lambsquarters” value [4, 7] was 100. The “Lambsquarters plant response rating” value [4] was 100, the “Plant response rating (0 = no effect, 100 = complete control), Crabgrass, Large” value ([5]; 62 g ai/ha) was 50 and the “Plant response rating, Crabgrass, Large” value [5, 6] was 75. For the same molecule, the “Plant response rating, Crabgrass, Large” value [5, 7] was 100 and the “Crabgrass, Large plant response rating” value [5] was 100.
In the case of `CCCCOc1cccc(NC(=O)c2cc(C(C)(C)C)nn2CC)c1` [Compound 137], the “Plant response rating (0 = no effect, 100 = complete control), Ragweed” value ([1]; 62 g ai/ha) is reported as 0, the “Plant response rating, Ragweed” value [1, 6] is reported as 0 and the “Ragweed plant response rating” value [1] is reported as 100. The “Plant response rating (0 = no effect, 100 = complete control), Sunflower” value ([2]; 62 g ai/ha) was 0, the “Plant response rating, Sunflower” value [2, 6] was 0 and the “Sunflower plant response rating” value [2] was 0. For the same molecule, the “Plant response rating (0 = no effect, 100 = complete control), Pigweed” value ([3]; 62 g ai/ha) was 100, the “Plant response rating, Pigweed” value [3, 6] was 100 and the “Pigweed plant response rating” value [3] was 100. The “Plant response rating (0 = no effect, 100 = complete control), Lambsquarters” value ([4]; 62 g ai/ha) was 40, the “Plant response rating, Lambsquarters” value [4, 6] was 100 and the “Lambsquarters plant response rating” value [4] was 100. For the same molecule, the “Plant response rating (0 = no effect, 100 = complete control), Crabgrass, Large” value ([5]; 62 g ai/ha) was 40, the “Plant response rating, Crabgrass, Large” value [5, 6] was 70 and the “Plant response rating, Crabgrass, Large” value [5, 7] was 100. For the same molecule, the “Crabgrass, Large plant response rating” value [5] was 100.
`CCN(CC)C(=O)c1ccnc(NC(=O)c2cc(C(C)(C)C)nn2CC)c1` [Compound 153] was tested, and the “Plant response rating, Ragweed” value ([1]; 62 g ai/ha, scale 0 to 100) was 0, the “Plant response rating, Ragweed” value [1, 6] was 0 and the “Ragweed plant response rating” value [1] was 100. For the same molecule, the “Plant response rating, Sunflower” value ([2]; 62 g ai/ha, scale 0 to 100) was 0, the “Plant response rating, Sunflower” value [2, 6] was 0 and the “Sunflower plant response rating” value [2] was 0. The “Plant response rating, Pigweed” value ([3]; 62 g ai/ha, scale 0 to 100) was 95, the “Plant response rating, Pigweed” value [3, 6] was 100 and the “Pigweed plant response rating” value [3] was 100. The “Plant response rating, Lambsquarters” value ([4]; 62 g ai/ha, scale 0 to 100) was 95, the “Plant response rating, Lambsquarters” value [4, 6] was 100 and the “Lambsquarters plant response rating” value [4] was 100. For the same molecule, the “Plant response rating, Crabgrass, Large” value ([5]; 62 g ai/ha, scale 0 to 100) was 0, the “Plant response rating, Crabgrass, Large” value [5, 6] was 0 and the “Plant response rating, Crabgrass, Large” value [5, 7] was 0. For the same molecule, the “Crabgrass, Large plant response rating” value [5] was 80.
In the case of `CCN(CC)C(=O)c1cccc(NC(=O)c2sc(C(C)(C)C)nc2C)c1` [Compound 199], the “Plant response rating, Ragweed” value ([1]; 62 g ai/ha, scale 0 to 100) is reported as 55, the “Plant response rating, Ragweed” value [1, 6] is reported as 60 and the “Plant response rating, Ragweed” value ([1]; 250 g ai/ha, scale 0-100) is reported as 80. The “Ragweed plant response rating” value [1] was 80, the “Plant response rating, Sunflower” value ([2]; 62 g ai/ha, scale 0 to 100) was 0 and the “Plant response rating, Sunflower” value [2, 6] was 0. The “Plant response rating, Sunflower” value ([2]; 250 g ai/ha, scale 0-100) was 0, the “Sunflower plant response rating” value [2] was 0 and the “Plant response rating, Pigweed” value ([3]; 62 g ai/ha, scale 0 to 100) was 100. The “Plant response rating, Pigweed” value [3, 6] was 100, the “Plant response rating, Pigweed” value ([3]; 250 g ai/ha, scale 0-100) was 100 and the “Pigweed plant response rating” value [3] was 100. The “Plant response rating, Lambsquarters” value ([4]; 62 g ai/ha, scale 0 to 100) was 80, the “Plant response rating, Lambsquarters” value [4, 6] was 95 and the “Plant response rating, Lambsquarters” value ([4]; 250 g ai/ha, scale 0-100) was 100. For the same molecule, the “Lambsquarters plant response rating” value [4] was 100, the “Plant response rating, Crabgrass, Large” value ([5]; 62 g ai/ha, scale 0 to 100) was 10 and the “Plant response rating, Crabgrass, Large” value [5, 6] was 90. For the same molecule, the “Plant response rating, Crabgrass, Large” value ([5]; 250 g ai/ha, scale 0-100) was 90 and the “Crabgrass, Large plant response rating” value [5] was 95.
